Laboratory results reported in patent publication US20250295631A1, “NOVEL TREATMENT” (University of Liverpool, priority 2022, published 2025).
Entries after “also recorded” stand apart in the source; their conditions may differ.

Assays:
ex vivo porcine corneas = assay: Ex vivo tensile testing of cross-linked porcine corneas (elastic modulus); parameters: species or system domestic pig (Sus domesticus)
Description: Eyes of the domestic pig (Sus domesticus) are collected from a local abattoir 0-4 hours post-mortem. Eyes are cleaned of excess tissue and fat and washed in PBS containing 200 U penicillin and 0.2 mg/ml streptomycin and 5 μg/ml amphotericin B (Merch Life Science, Dorset, UK). The eyes are stored in a petri dish containing the PBS antibiotic/antimycotic solution, corneas facing up, at 4° C. overnight.
The porcine eyes are removed from 4° C. and allowed to warm to room temperature. One-to-two drops of Minims Proxymetacaine hydrochloride 0.5% w/v (Bosch & Lomb, Surrey, UK) were applied to the cornea for 15 minutes, with additional drops added ever 5 minutes and then 2-3 minutes before treatment. After which a suction ring (E.Janach, Como, Italy) was attached to the cornea (FIG. 1) and 200 μl of BS^3 solution was added inside the ring. Eyes were incubated for 5, 15 or 30 mins at 37° C.; after which the BS^3 solution was aspirated and retained for pH measurement, and eyes were rinsed in PBS then stored, cornea facing down, in a 6-well plate with fresh PBS until tensile measurement.
Suction rings were applied to porcine corneas as in FIG. 1 and 18% ethanol solution was applied for 30 seconds before being adsorbed by a sponge spear. The cornea was then rinsed with PBS. After this the epithelium was removed with a corneal scraper and sponge spear. Once the epithelium was removed 0.1% riboflavin (Vibex Rapid™, Avedro Inc, MA, USA) was applied every 3 mins. Riboflavin was applied for a total of 30 mins for the Dresden protocol and 15 minutes for the Accelerated protocol.
After riboflavin treatment eyes were cross-linked by UVA light using and KXL System (Avedro Inc). UV light was applied at 3 mW/cm^2 for 30 mins for the Dresden protocol and 6 mW/cm^2 for 15 mins for the Accelerated protocol for a total applied energy of 5.4 J/cm^2 for both protocols.
The anterior section of the eye was removed by cutting around the globe 5-10 mm posteriorly from the limbus. The iris and ciliary process were removed from the posterior section of the tissue leaving only sclera and cornea. A strip of tissue was cut using a custom-made replaceable razor blade jig. Tissue thickness and width (determined as the distance between cutting edges) were measured with calipers.
(§1) The tissue strip was mounted in the grips of a Univert tensile tester (CellScale, Ontario, Canada) with a 50 N load cell. Tissue was stretched at a rate of 125 μm/s until failure. Data was captured at 1 Hz. Stress-strain curves were plotted and the elastic modulus was determined at a range of strains: 5-10%, 10-15%, 20-25% and 30-35%. Data were trimmed to 3% from the strain at ultimate tensile strain and 6 term polynomial equations we determined from each curve. […] These polynomials represent the stress-stain response of each cornea and were used to create an average stress-strain curve for the samples.
Ex vivo mechanical data were compared by One-way ANOVA and Tukey's post-hoc.

rabbit corneas [1] = conditions: in vivo
Description: (§2) Male Wistar rats (300 g) and mixed sex New Zealand rabbits (1.5-3 kg), both specific-antigen free, were ordered from Charles River UK and ENVIGO, respectively. They were allowed a minimum of 7 days acclimatisation prior to procedures. Animals were anaesthetised and proxymetacaine hydrochloride 0.5% w/v was applied to the corneas. For the rats, a 2 cm section of silicone tubing was placed on the cornea whereas for the rabbits the suction ring (as above) was placed on the cornea, and 200 μl of the sterile filtered 0.2 M BS^3 solution was instilled for 15 mins. Following this, eyes were rinsed with saline. Animals were provided with antibiotic/steroid drops (Tobradex, Novartis Pharmaceuticals UK Ltd, London, UK) daily and were monitored for any signs for distress or ocular discomfort.
(§3) The animals were euthanised at pre-determined time points (rats at 24 hours and 7 days; rabbits at 3 days post-treatment). Aqueous humour was collected. Rat ocular tissue was collected and fixed in 10% paraformaldehyde for histology. […]
(§4) Corneal thickness and transparency were determined using optical coherence tomography (OCT) (ENVISU R2210, Leica Microsystems, Milton Keynes, UK) before treatment and prior to euthanasia. Corneal transparency was determined by the intensity of the pixels within the cornea minus background intensity from the corneal sections of the OCT images. […]

rat corneas = conditions: in vivo
Description: as §2, §3, §4

rabbit corneas [2] = assay: Rabbit corneal tensile measurements after in vivo treatment; parameters: species or system New Zealand rabbits; conditions: for Percentage Change in Modulus After 3 Days Compared to Control / Percentage Change in Modulus Compared to Control: 0.2M BS^3 for 15 mins; for Percentage Change in Modulus After 3 Days Compared to Control: 3 days after treatment; for Percentage Change in Modulus Compared to Control: 28 days after treatment
Description: as §1, §2
Aqueous humour was collected. Rat ocular tissue was collected and fixed in 10% paraformaldehyde for histology. Rabbit the eyes enucleated and prepared for mechanical testing which was conducted the following day and the remaining cornea was fixed. Ocular tissue was also fixed in 10% paraformaldehyde.
Rabbit eyes were collected immediately after culling and were stored in a petri dish containing the PBS antibiotic/antimycotic solution, corneas facing up, at 4° C. overnight. Mechanical testing was conducted using the protocol above for ex vivo porcine tissue.
(§5) Statistical analyses were performed with Prism 9.3.1 (GraphPad Software, San Diego, CA, USA). In vivo data were compared by paired t-tests to contralateral control eyes.

[3] = test system: inflammatory cytokines in rat aqueous humour; conditions: in vivo
Description: as §2
The animals were euthanised at pre-determined time points (rats at 24 hours and 7 days; rabbits at 3 days post-treatment). Aqueous humour was collected. Rat ocular tissue was collected and fixed in 10% paraformaldehyde for histology. Rabbit the eyes enucleated and prepared for mechanical testing which was conducted the following day and the remaining cornea was fixed. Ocular tissue was also fixed in 10% paraformaldehyde.
as §5

bis(sulfosuccinimidyl)suberate [BS3]
Percentage Change in Modulus Compared to Control (ex vivo porcine corneas; 20 mg/ml (0.035 M) BS3 in PBS (US2014/0271897 A1 [0358]), strain range 5-10%): −28% | Percentage Change in Modulus Compared to Control (ex vivo porcine corneas; 20 mg/ml (0.035 M) BS3 in PBS (US2014/0271897 A1 [0358]), strain range 10-15%): −10% | Percentage Change in Modulus Compared to Control (ex vivo porcine corneas; 20 mg/ml (0.035 M) BS3 in PBS (US2014/0271897 A1 [0358]), strain range 20-25%): 3% | Percentage Change in Modulus Compared to Control (ex vivo porcine corneas; 20 mg/ml (0.035 M) BS3 in PBS (US2014/0271897 A1 [0358]), strain range 30-35%): 15% | difference in elastic modulus compared to control (ex vivo porcine corneas; 20 mg/ml (0.035 M) BS^3 in PBS, any of the strain ranges, p>0.05): no significant difference | Percentage Change in Modulus Compared to Control (ex vivo porcine corneas; 0.2M BS3, 5 min treatment, strain range 5-10%): 76% | Percentage Change in Modulus Compared to Control (ex vivo porcine corneas; 0.2M BS3, 5 min treatment, strain range 10-15%): 60% | Percentage Change in Modulus Compared to Control (ex vivo porcine corneas; 0.2M BS3, 5 min treatment, strain range 20-25%): 42% | Percentage Change in Modulus Compared to Control (ex vivo porcine corneas; 0.2M BS3, 5 min treatment, strain range 30-35%): 12% | Percentage Change in Modulus Compared to Control (ex vivo porcine corneas; 0.2M BS3, 15 min treatment, strain range 5-10%): 109% | Percentage Change in Modulus Compared to Control (ex vivo porcine corneas; 0.2M BS3, 15 min treatment, strain range 5-10%, listed as BS^3): 109% | Percentage Change in Modulus Compared to Control (ex vivo porcine corneas; 0.2M BS3, 15 min treatment, strain range 10-15%): 68% | Percentage Change in Modulus Compared to Control (ex vivo porcine corneas; 0.2M BS3, 15 min treatment, strain range 10-15%, listed as BS^3): 68% | Percentage Change in Modulus Compared to Control (ex vivo porcine corneas; 0.2M BS3, 15 min treatment, strain range 20-25%): 43% | Percentage Change in Modulus Compared to Control (ex vivo porcine corneas; 0.2M BS3, 15 min treatment, strain range 30-35%): 18% | Percentage Change in Modulus Compared to Control (ex vivo porcine corneas; 0.2M BS3, 15 min treatment, strain range 30-35%, listed as BS^3): 18% | Percentage Change in Modulus Compared to Control (ex vivo porcine corneas; 0.2M BS3, 30 min treatment, strain range 5-10%): 56% | Percentage Change in Modulus Compared to Control (ex vivo porcine corneas; 0.2M BS3, 30 min treatment, strain range 10-15%): 54% | Percentage Change in Modulus Compared to Control (ex vivo porcine corneas; 0.2M BS3, 30 min treatment, strain range 20-25%): 45% | Percentage Change in Modulus Compared to Control (ex vivo porcine corneas; 0.2M BS3, 30 min treatment, strain range 30-35%): 22% | stiffness (elastic modulus) (ex vivo porcine corneas; 0.2 M BS^3 in 0.5 M carbonate:bicarbonate 9:1, 5 min treatment, strain range 5-10%): 5.43±2.23 MPa | stiffness (elastic modulus) (ex vivo porcine corneas; 0.2 M BS^3 in 0.5 M carbonate:bicarbonate 9:1, 15 min treatment, strain range 5-10%): 6.47±2.23 MPa | stiffness (elastic modulus) (ex vivo porcine corneas; 0.2 M BS^3 in 0.5 M carbonate:bicarbonate 9:1, 30 min treatment, strain range 5-10%): 4.84±2.02 MPa | reduction in corneal thickness in the treated eyes vs contralateral control (rabbit corneas [1]): 100±20 μm | reduction in corneal thickness in the treated eye vs contralateral control (rat corneas): 42±29 μm | Percentage Change in Modulus After 3 Days Compared to Control (rabbit corneas [2]; strain range 5-10%): −6% | Percentage Change in Modulus After 3 Days Compared to Control (rabbit corneas [2]; strain range 10-15%): 15% | Percentage Change in Modulus After 3 Days Compared to Control (rabbit corneas [2]; strain range 15-20%): 43% | Percentage Change in Modulus After 3 Days Compared to Control (rabbit corneas [2]; strain range 20-25%): 104% | Percentage Change in Modulus Compared to Control (rabbit corneas [2]; strain range 5-10%): 22% | Percentage Change in Modulus Compared to Control (rabbit corneas [2]; strain range 10-15%): 29% | Percentage Change in Modulus Compared to Control (rabbit corneas [2]; strain range 15-20%): 28% | Percentage Change in Modulus Compared to Control (rabbit corneas [2]; strain range 20-25%): 38% | effect on stiffness of corneal tissue vs untreated control eye (rabbit corneas [2]; 3 days, lower strain ranges (5-10% & 10-15%)): No significant difference; also recorded: insignificant effect | effect on stiffness of corneal tissue vs untreated control eye (rabbit corneas [2]; 28 days, lowest and highest strain ranges): No significant difference | change in IL-2 in aqueous humour, treated vs control eyes [3]: −0.76 fold | change in IL-4 in aqueous humour, treated vs control eyes [3]: −0.63 fold | reductions in IL-2 and IL-4 in aqueous humour [3]: resolved by day 7
